Results reported in patent US9978954B2, “Benzobis (thiadiazole) derivative, ink comprising same, and organic electronic device comprising same” (UBE INDUSTRIES, LTD., priority 2013, dated 2018).

Assay: Evaluation of solubility in organic solvents (visual observation of complete dissolution)
Type: physicochemical
Description: [Evaluation of Solubility]
The evaluation of the solubility of the synthesized compound was conducted by the following method.
About 2-3 mg of the compound was precisely weighed, and each solvent was added to the compound such that a predetermined concentration of the solute (0.5 wt %, 0.3 wt %, 0.2 wt %, 0.1 wt %, 0.05 wt %, or 0.03 wt %) was reached. The resultant mixture was stirred for 30 minutes at a predetermined temperature, and then it was evaluated by visual appearance observation whether or not the solute (synthesized compound) was completely dissolved in the solvent, which was the result of the evaluation of the solubility. As the solvent, chloroform (boiling point 61° C.), toluene (boiling point 111° C.), xylene (boiling point 144° C.), mesitylene (boiling point 165° C.), chlorobenzene (boiling point 130° C.), para-chlorotoluene (boiling point 162° C.), and ortho-dichlorobenzene (boiling point 181° C.) were used.

[1] = chloroform, 25° C. (room temperature)

CCCCCCc1ccc(-c2ccc(-c3c4c(c(-c5ccc(-c6ccc(CCCCCC)c(OC(F)(F)F)c6)s5)c5nsnc35)N=S=N4)s2)cc1OC(F)(F)F [Compound (C11), 4,8-bis[5-(4-hexyl-3-(trifluoromethoxy)phenyl)thiophene-2-yl]benzo[1,2-c:4,5-c′]bis[1,2,5]thiadiazole]
solubility (solute concentration completely dissolved) (chlorobenzene, 60° C.): ≥ 0.1 wt %
solubility (solute concentration completely dissolved) (chlorobenzene, 80° C.): ≥ 0.5 wt %
solubility (solute concentration completely dissolved) (mesitylene, 80° C.): ≥ 0.1 wt %
solubility (solute concentration completely dissolved) (mesitylene, 100° C.): ≥ 0.5 wt %
solubility (solute concentration completely dissolved) (ortho-dichlorobenzene, 60° C.): ≥ 0.1 wt %
solubility (solute concentration completely dissolved) (ortho-dichlorobenzene, 80° C.): ≥ 0.5 wt %
solubility (solute concentration completely dissolved) (toluene, 60° C.): ≥ 0.1 wt %
solubility (solute concentration completely dissolved) (toluene, 80° C.): ≥ 0.5 wt %

CCCCCCCCc1ccc(-c2ccc(-c3c4c(c(-c5ccc(-c6ccc(CCCCCCCC)c(C(F)(F)F)c6)s5)c5nsnc35)N=S=N4)s2)cc1C(F)(F)F [Compound (C25), 4,8-bis[5-(4-octyl-3-(trifluoromethyl)phenyl)thiophene-2-yl]benzo[1,2-c:4,5-c′]bis[1,2,5]thiadiazole]
solubility (solute concentration completely dissolved) (1-methylnaphthalene, 60° C.): ≥ 0.3 wt %
solubility (solute concentration completely dissolved) (chloroform, 60° C.): ≥ 0.2 wt %
solubility (solute concentration completely dissolved) (mesitylene, 60° C.): ≥ 0.3 wt %
solubility (solute concentration completely dissolved) (ortho-dichlorobenzene, 60° C.): ≥ 0.3 wt %
solubility (solute concentration completely dissolved) (toluene, 60° C.): ≥ 0.3 wt %

4,8-bis[5-(4-cyano-3-(2-methylhexyl)phenyl)thiophene-2-yl]benzo[1,2-c:4,5-c′]bis[1,2,5]thiadiazole [Compound (C29)]
solubility (solute concentration completely dissolved) (1-methylnaphthalene, 60° C.): ≥ 0.3 wt %
solubility (solute concentration completely dissolved) (chloroform, 60° C.): ≥ 0.1 wt %

CCCCCCCCCCCCCCc1cc(-c2ccc(-c3c4c(c(-c5ccc(-c6ccc(C#N)c(CCCCCCCCCCCCCC)c6)s5)c5nsnc35)N=S=N4)s2)ccc1C#N [Compound (C18), 4,8-bis[5-(4-cyano-3-tetradecylphenyl)thiophene-2-yl]benzo[1,2-c:4,5-c′]bis[1,2,5]thiadiazole]
solubility (solute concentration completely dissolved) (1-methylnaphthalene, 80° C.): ≥ 0.3 wt %
solubility (solute concentration completely dissolved) (chlorobenzene, 100° C.): ≥ 0.3 wt %
solubility (solute concentration completely dissolved) (chloroform, 60° C.): ≥ 0.2 wt %
solubility (solute concentration completely dissolved) (ortho-dichlorobenzene, 80° C.): ≥ 0.3 wt %

CCCCCCCCCCCCCCCCc1cc(-c2ccc(-c3c4c(c(-c5ccc(-c6ccc(C#N)c(CCCCCCCCCCCCCCCC)c6)s5)c5nsnc35)N=S=N4)s2)ccc1C#N [Compound (C19), 4,8-bis[5-(4-cyano-3-hexadecylphenyl)thiophene-2-yl]benzo[1,2-c:4,5-c′]bis[1,2,5]thiadiazole]
solubility (solute concentration completely dissolved) (1-methylnaphthalene, 25° C. (room temperature)): ≥ 0.3 wt %
solubility (solute concentration completely dissolved) (chlorobenzene, 80° C.): ≥ 0.3 wt %
solubility (solute concentration completely dissolved) (chloroform, 60° C.): ≥ 0.2 wt %
solubility (solute concentration completely dissolved) (ortho-dichlorobenzene, 80° C.): ≥ 0.3 wt %

FC(F)(F)Sc1ccc(-c2ccc(-c3c4c(c(-c5ccc(-c6ccc(SC(F)(F)F)cc6)s5)c5nsnc35)N=S=N4)s2)cc1 [Compound (RC5), 4,8-bis[5-(4-((trifluoromethyl)thio)phenyl)thiophene-2-yl]benzo[1,2-c:4,5-c′]bis[1,2,5]thiadiazole, reference compound]
solubility (solute concentration completely dissolved) (chlorobenzene, 100° C.): < 0.03 wt %
solubility (solute concentration completely dissolved) (mesitylene, 100° C.): < 0.03 wt %
solubility (solute concentration completely dissolved) (mesitylene, 130° C.): < 0.3 wt %
solubility (solute concentration completely dissolved) (ortho-dichlorobenzene, 100° C.): < 0.03 wt %
solubility (solute concentration completely dissolved) (toluene, 100° C.): < 0.03 wt %

CCCCCCc1cc(-c2ccc(-c3c4c(c(-c5ccc(-c6ccc(C#N)c(CCCCCC)c6)s5)c5nsnc35)N=S=N4)s2)ccc1C#N [Compound (C8), 4,8-bis[5-(4-cyano-3-hexylphenyl)thiophene-2-yl]benzo[1,2-c:4,5-c′]bis[1,2,5]thiadiazole]
solubility (solute concentration completely dissolved) (chlorobenzene, 25° C.): ≥ 0.03 wt %
solubility (solute concentration completely dissolved) (chloroform, 60° C.): ≥ 0.05 wt %
solubility (solute concentration completely dissolved) (chloroform, 80° C.): ≥ 0.2 wt %
solubility (solute concentration completely dissolved) (ortho-dichlorobenzene, 25° C.): ≥ 0.03 wt %
solubility (solute concentration completely dissolved) (para-chlorotoluene, 100° C.): ≥ 0.3 wt %

FC(F)(F)c1ccccc1-c1ccc(-c2c3c(c(-c4ccc(-c5ccccc5C(F)(F)F)s4)c4nsnc24)N=S=N3)s1 [Compound (RR2), 4,8-bis[5-(2-(trifluoromethyl)phenyl)thiophene-2-yl]benzo[1,2-c:4,5-c′]bis[1,2,5]thiadiazole, reference compound]
solubility (solute concentration completely dissolved) (chlorobenzene, 25° C.): ≥ 0.1 wt %
solubility (solute concentration completely dissolved) (mesitylene, 25° C.): ≥ 0.1 wt %
solubility (solute concentration completely dissolved) (ortho-dichlorobenzene, 25° C.): ≥ 0.1 wt %
solubility (solute concentration completely dissolved) (toluene, 25° C.): ≥ 0.1 wt %

CCCC(C)CCc1cc(-c2ccc(-c3c4c(c(-c5ccc(-c6ccc(C#N)c(CCC(C)CCC)c6)s5)c5nsnc35)N=S=N4)s2)ccc1C#N (centres unmarked) [Compound (C21), 4,8-bis[5-(4-cyano-3-(3-methylhexyl)phenyl)thiophene-2-yl]benzo[1,2-c:4,5-c′]bis[1,2,5]thiadiazole]
solubility (solute concentration completely dissolved) (1-methylnaphthalene, 80° C.): ≥ 0.3 wt %
solubility (solute concentration completely dissolved) (chlorobenzene, 80° C.): ≥ 0.3 wt %
solubility (solute concentration completely dissolved) (chloroform, 60° C.): ≥ 0.2 wt %
solubility (solute concentration completely dissolved) (ortho-dichlorobenzene, 80° C.): ≥ 0.3 wt %

CCCCCCCCc1cc(-c2ccc(-c3c4c(c(-c5ccc(-c6ccc(C(F)(F)F)c(CCCCCCCC)c6)s5)c5nsnc35)N=S=N4)s2)ccc1C(F)(F)F [Compound (C24), 4,8-bis[5-(3-octyl-4-(trifluoromethyl)phenyl)thiophene-2-yl]benzo[1,2-c:4,5-c′]bis[1,2,5]thiadiazole]
solubility (solute concentration completely dissolved) (1-methylnaphthalene, 60° C.): ≥ 0.3 wt %
solubility (solute concentration completely dissolved) (chloroform, 60° C.): ≥ 0.2 wt %
solubility (solute concentration completely dissolved) (mesitylene, 60° C.): ≥ 0.3 wt %
solubility (solute concentration completely dissolved) (ortho-dichlorobenzene, 60° C.): ≥ 0.3 wt %
solubility (solute concentration completely dissolved) (toluene, 60° C.): ≥ 0.3 wt %

CCCCCCCCc1ccc(-c2ccc(-c3c4c(c(-c5ccc(-c6ccc(CCCCCCCC)c(C#N)c6)s5)c5nsnc35)N=S=N4)s2)cc1C#N [Compound (C26), 4,8-bis[5-(3-cyano-4-octylphenyl)thiophene-2-yl]benzo[1,2-c:4,5-c′]bis[1,2,5]thiadiazole]
solubility (solute concentration completely dissolved) (1-methylnaphthalene, 60° C.): ≥ 0.3 wt %
solubility (solute concentration completely dissolved) [1]: ≥ 0.2 wt %
solubility (solute concentration completely dissolved) (mesitylene, 80° C.): ≥ 0.3 wt %
solubility (solute concentration completely dissolved) (ortho-dichlorobenzene, 60° C.): ≥ 0.3 wt %
solubility (solute concentration completely dissolved) (toluene, 80° C.): ≥ 0.3 wt %

FC(F)(F)Oc1ccc(-c2ccc(-c3c4c(c(-c5ccc(-c6ccc(OC(F)(F)F)cc6)s5)c5nsnc35)N=S=N4)s2)cc1 [Compound (RC1), 4,8-bis[5-(4-(trifluoromethoxy)phenyl)thiophene-2-yl]benzo[1,2-c:4,5-c′]bis[1,2,5]thiadiazole, reference compound]
solubility (solute concentration completely dissolved) (chlorobenzene, 100° C.): < 0.03 wt %
solubility (solute concentration completely dissolved) (mesitylene, 100° C.): < 0.03 wt %
solubility (solute concentration completely dissolved) (ortho-dichlorobenzene, 100° C.): < 0.03 wt %
solubility (solute concentration completely dissolved) (toluene, 100° C.): < 0.03 wt %

FC(F)(F)c1cccc(-c2ccc(-c3c4c(c(-c5ccc(-c6cccc(C(F)(F)F)c6)s5)c5nsnc35)N=S=N4)s2)c1 [Compound (C2), 4,8-bis[5-(3-(trifluoromethyl)phenyl)thiophene-2-yl]benzo[1,2-c:4,5-c′]bis[1,2,5]thiadiazole]
solubility (solute concentration completely dissolved) (chlorobenzene, 80° C.): ≥ 0.1 wt %
solubility (solute concentration completely dissolved) (chlorobenzene, 100° C.): ≥ 0.3 wt %
solubility (solute concentration completely dissolved) (mesitylene, 25° C.): ≥ 0.03 wt %
solubility (solute concentration completely dissolved) (mesitylene, 80° C.): ≥ 0.1 wt %
solubility (solute concentration completely dissolved) (ortho-dichlorobenzene, 80° C.): ≥ 0.1 wt %
solubility (solute concentration completely dissolved) (ortho-dichlorobenzene, 100° C.): ≥ 0.5 wt %
solubility (solute concentration completely dissolved) (toluene, 25° C.): ≥ 0.03 wt %
solubility (solute concentration completely dissolved) (toluene, 100° C.): ≥ 0.1 wt %

CCCCCCCCc1cc(-c2ccc(-c3c4c(c(-c5ccc(-c6ccc(C#N)c(CCCCCCCC)c6)s5)c5nsnc35)N=S=N4)s2)ccc1C#N [Compound (C14), 4,8-bis[5-(4-cyano-3-octylphenyl)thiophene-2-yl]benzo[1,2-c:4,5-c′]bis[1,2,5]thiadiazole]
solubility (solute concentration completely dissolved) (chlorobenzene, 80° C.): ≥ 0.3 wt %
solubility (solute concentration completely dissolved) [1]: ≥ 0.1 wt %
solubility (solute concentration completely dissolved) (chloroform, 60° C.): ≥ 0.2 wt %
solubility (solute concentration completely dissolved) (ortho-dichlorobenzene, 60° C.): ≥ 0.3 wt %
solubility (solute concentration completely dissolved) (para-chlorotoluene, 100° C.): ≥ 0.3 wt %
